Patent US9168288B2, “Methods for treating disorders of the gastrointestinal tract using a GLP-1 agonist” (Mount Sinai Hospital, priority 2010, dated 2015)

Legend:
Format in all cases: in vivo
[1] = test system: WT female mice on the C57B1/6 genetic background; assay: Example 3: efficacy of GLP-1 receptor agonists administered once per day (body weight, blood glucose, pancreas, small bowel, colon)
Method: All mice used in the study were 10-week old WT female mice on the C57B1/6 genetic background. The mice were maintained on regular drinking water and a standard rodent chow diet.
All injections were given once per day, and were administered ip using a 31 g insulin syringe with an 8 mm long needle in a final volume that ranged between 84-125 μl. The body weight and food intake were determined daily. Non-fasting blood glucose levels were measured using a hand-held glucometer on day 1 (prior to the first injection), day 8, and day 15 (day of sacrifice). […] The entire pancreas was removed and weighed. The entire small bowel was removed and then suspended vertically with a 1 g weight attached to the distal portion of the small bowel (to provide uniform tension). Small bowel length was determined using a vertical ruler and then flushed with ice-cold PBS, blotted dry and weighed. The entire colon was removed and colon length was determined by measuring with a ruler placed on a horizontal surface. The colon was then flushed with ice-cold PBS, blotted dry and weighed. All statistical analyses were done by one-way ANOVA with Bonferroni's Multiple Comparison Post-Test using GraphPad Prism software (version 4), n=4 mice/group.

[2] = test system: wild-type female C57B1/6 mice on regular drinking water or 3% DSS; assay: Example 5: low dose Liraglutide (25 or 50 μg/kg BID s.c., one week), small intestine size, body weight, blood glucose; details: C57B1/6, regular water or 3% DSS
Method: All mice were 10-week old wild-type female mice on the C57B1/6 genetic background. Mice were maintained on a standard rodent chow diet and either regular drinking water or water supplemented with 3% DSS for a total of one week. Mice were given subcutaneous injections of either phosphate buffered saline (PBS), 25 μg/kg of Liraglutide (LG) BID, or 50 μg/kg of LG BID for one week. PBS or LG injections commenced at the same time that mice were started on normal drinking water or water supplemented with 3% DSS. Injections were administered using a 31 g insulin syringe with an 8 mm long needle and in a final volume that ranged between 85-110 μl. Body weights, food intake, and water intake were determined daily. […] Small intestines were removed and then suspended vertically with a 1 g weight attached to the distal portion of the small intestine (to provide uniform tension). Small intestine length was determined using a vertical ruler. Luminal contents were removed from the small bowel by flushing with ice-cold PBS using a 60 cc syringe attached to a p200 pipette tip. Mesenteric fat and pancreatic tissue were dissected away from the small intestine. The small intestine was blotted to remove excess PBS and then weighed. Statistical analyses were done by one-way ANOVA with Bonferroni's Multiple Comparison Post-Test using GraphPad Prism software (version 4).
All mice were 10-week old female wild-type mice on the C57B1/6 genetic background. Mice were maintained on a standard rodent chow diet and either regular drinking water or water supplemented with 3% DSS for a total of one week. Mice were given s.c. injections of either phosphate buffered saline (PBS), 25 μg/kg of Liraglutide (LG) BID, or 50 μg/kg of LG BID for one week. PBS or LG injections commenced at the same time that mice were started on normal drinking water or water supplemented with 3% DSS. Injections were administered using a 31 g insulin syringe with an 8 mm long needle and in a final volume that ranged between 85-110 μl. Body weights, food intake, and water intake were determined daily. Blood glucose levels were measured on the first day of the study and just prior to sacrifice. Statistical analyses were done by one-way ANOVA with Bonferroni's Multiple Comparison Post-Test using GraphPad Prism software (version 4). n=5 mice/group.

[3] = test system: female wild-type mice on the Balb/c genetic background; assay: Example 5: low dose Liraglutide (30 or 50 μg/kg BID s.c., one week), large intestine size and body weight, Balb/c mice; details: Liraglutide 30 μg/kg BID s.c. 7 days vs PBS
Source text: FIGS. 18A-18D illustrate that doses of Liraglutide lower than those that have shown glucose lowering or cardioprotective effects in rodents [Rolin B, et al, 2002; Noyan-Ashraf M H, et al, 2009; Porter D W et al, 2010; Irwin N et al, 2010; and Gault V A et al, 2011] are still able to increase large intestine size (large intestine weight and length) in wild-type mice compared to PBS-treated mice. FIGS. 18A-18D also illustrate that Liraglutide treatment can increase large intestine size (large intestine length and weight) in wild-type mice on the Balb/c genetic background compared to control-treated mice. All mice were 9-week old female wild-type mice on the Balb/c genetic background. All mice were maintained on a standard rodent chow diet and normal drinking water. Mice were given s.c. injections of either phosphate buffered saline (PBS), 30 μg/kg of Liraglutide (LG) BID, or 50 μg/kg of LG BID for one week. Injections were administered using a 31 g insulin syringe with an 8 mm long needle and in a final volume that ranged between 60-120 μl. Body weights and food intake were determined daily. […] The large intestine was removed and its length was determined by measuring with a ruler placed on a horizontal surface. Luminal contents were removed from the large intestine by flushing with ice-cold PBS using a 60 cc syringe attached to a p200 pipette tip. Mesenteric fat was dissected away from the large intestine. The large intestine was blotted to remove excess PBS and then weighed. Statistical analyses were done by one-way ANOVA with Bonferroni's Multiple Comparison Post-Test using GraphPad Prism software (version 4).
All mice were 9-week old female wild-type mice on the Balb/c genetic background. All mice were maintained on a standard rodent chow diet and normal drinking water. Mice were given s.c. injections of either phosphate buffered saline (PBS), 30 μg/kg of Liraglutide (LG) BID, or 50 μg/kg of LG BID for one week. […] Body weights and food intake were determined daily. […]

[4] = Liraglutide once a day ip for two weeks (LG qd 2, 75 μg/kg) vs PBS
[5] = Liraglutide 25 μg/kg BID s.c. 7 days vs PBS, listed as 3% DSS/Liguratide
[6] = Liraglutide 25 μg/kg BID s.c. 7 days vs PBS, listed as liraglutide
[7] = Liraglutide 50 μg/kg BID s.c. 7 days vs PBS
[8] = Liraglutide 50 μg/kg BID s.c. 7 days vs PBS, listed as 3% DSS/Liguratide
[9] = Liraglutide 50 μg/kg BID s.c. 7 days vs PBS, listed as liraglutide

## CCCCCCCCCCCCCCCC(=O)N[C@@H](CCC(=O)NCCCC[C@H](NC(=O)[C@H](C)NC(=O)[C@H](C)NC(=O)[C@H](CCC(N)=O)NC(=O)CNC(=O)[C@H](CCC(=O)O)NC(=O)[C@H](CC(C)C)NC(=O)[C@H](Cc1ccc(O)cc1)NC(=O)[C@H](CO)NC(=O)[C@H](CO)NC(=O)[C@@H](NC(=O)[C@H](CC(=O)O)NC(=O)[C@H](CO)NC(=O)[C@@H](NC(=O)[C@H](Cc1ccccc1)NC(=O)[C@@H](NC(=O)CNC(=O)[C@H](CCC(=O)O)NC(=O)[C@H](C)NC(=O)[C@@H](N)Cc1cnc[nH]1)[C@@H](C)O)[C@@H](C)O)C(C)C)C(=O)N[C@@H](CCC(=O)O)C(=O)N[C@@H](Cc1ccccc1)C(=O)N[C@H](C(=O)N[C@@H](C)C(=O)N[C@@H](Cc1c[nH]c2ccccc12)C(=O)N[C@@H](CC(C)C)C(=O)N[C@H](C(=O)N[C@@H](CCCNC(=N)N)C(=O)NCC(=O)N[C@@H](CCCNC(=N)N)C(=O)NCC(=O)O)C(C)C)[C@@H](C)CC)C(=O)O [Liraglutide]
[1]; Liraglutide 75 μg/kg ip once a day for one week vs PBS
  non-fasting blood glucose levels: does not alter
[1]; Liraglutide 75 μg/kg ip once a day for two weeks vs PBS
  non-fasting blood glucose levels: significantly increased
[1]; Liraglutide 75 μg/kg ip once per day for 7 days (LG qd 1) vs PBS
  body weight: do not have a significant effect
[1]; Liraglutide 75 μg/kg ip once per day for 14 days (LG qd 2) vs PBS
  body weight: do not have a significant effect
[1]; [4]
  pancreas weight per gram of body weight: significantly increases
  total pancreas weight: significantly increases
[2]; Liraglutide 25 μg/kg BID s.c. 7 days vs PBS
  increase blood glucose (blood glucose level): no difference
[2]; [5]
  decrease body weight (final body weight): No
  increase blood glucose (blood glucose level): No
[2]; [6]
  decrease body weight (final body weight): no difference
  increase blood glucose (blood glucose level): no difference
[2]; [7]
  decrease body weight (final body weight): no difference
  increase blood glucose (blood glucose level): no difference
[2]; [8]
  decrease body weight (final body weight): No
  increase blood glucose (blood glucose level): No
[2]; [9]
  decrease body weight (final body weight): no difference
  increase blood glucose (blood glucose level): no difference
[3]
  decrease body weight (final body weight): no difference
[3]; listed as 3% DSS/Liguratide
  decrease body weight (final body weight): No
[3]; listed as liraglutide
  decrease body weight (final body weight): no difference
